Legend:
[1] = species: Homo sapiens; test: Liver toxicity in human assessed as induction of drug-induced liver injury by measuring severity class index
[2] = species: Homo sapiens; test: Liver toxicity in human assessed as induction of drug-induced liver injury by measuring verified drug-induced liver injury concern status
Throughout, for DILI severity class: key of the grades not given here.

| Molecule | DILI_severity_class [1] | DILI_Concern [2] |
| --- | --- | --- |
| CC(C)[C@H](N)C(=O)OCCOCn1cnc2c(=O)[nH]c(N)nc21 [VALACYCLOVIR] | 3 | Less-Dili-Concern |
| Cc1onc(-c2ccccc2)c1-c1ccc(S(N)(=O)=O)cc1 [VALDECOXIB] | 3 | Less-Dili-Concern |
| CC(C)[C@H](N)C(=O)OCC(CO)OCn1cnc2c(=O)nc(N)[nH]c21 (stereo partly specified) [VALGANCICLOVIR] | 3 | Ambiguous-Dili-Concern |
| CN[C@H](CC(C)C)C(=O)N[C@H]1C(=O)N[C@@H](CC(N)=O)C(=O)N[C@H]2C(=O)N[C@H]3C(=O)N[C@H](C(=O)N[C@H](C(=O)O)c4cc(O)cc(O)c4-c4cc3ccc4O)[C@H](O)c3ccc(c(Cl)c3)Oc3cc2cc(c3O[C@@H]2O[C@H](CO)[C@@H](O)[C@H](O)[C@H]2O[C@H]2C[C@](C)(N)[C@H](O)[C@H](C)O2)Oc2ccc(cc2Cl)[C@H]1O [VANCOMYCIN] | 0 | Less-Dili-Concern |
| c1cnc2cc3c(cc2n1)[C@@H]1CNC[C@H]3C1 [VARENICLINE] | 2 | Less-Dili-Concern |
| NC(=O)CC[C@@H]1NC(=O)[C@H](Cc2ccccc2)NC(=O)[C@H](Cc2ccc(O)cc2)NC(=O)[C@@H](N)CSSC[C@@H](C(=O)N2CCC[C@H]2C(=O)N[C@@H](CCCN=C(N)N)C(=O)NCC(N)=O)NC(=O)[C@H](CC(N)=O)NC1=O [VASOPRESSIN] | 0 | No-Dili-Concern |
| CC(=O)O[C@H]1C[C@@H]2CC[C@@H]3[C@H](CC[C@@]4(C)[C@H]3C[C@H]([N+]3(C)CCCCC3)[C@@H]4OC(C)=O)[C@@]2(C)C[C@@H]1N1CCCCC1 [VECURONIUM] | 0 | No-Dili-Concern |
| COc1ccc(C(CN(C)C)C2(O)CCCCC2)cc1 (stereo unspecified) [VENLAFAXINE] | 7 | Less-Dili-Concern |
| C=CC(N)CCC(=O)O (stereo unspecified) [VIGABATRIN] | 2 | Ambiguous-Dili-Concern |
| CC[C@]1(O)C[C@@H]2CN(CCc3c([nH]c4ccccc34)[C@@](C(=O)OC)(c3cc4c(cc3OC)N(C)[C@H]3[C@@](O)(C(=O)OC)[C@H](OC(C)=O)[C@]5(CC)C=CCN6CC[C@]43[C@@H]65)C2)C1 [VINBLASTINE] | 0 | No-Dili-Concern |
| CC[C@]1(O)C[C@H]2CN(CCc3c([nH]c4ccccc34)[C@@](C(=O)OC)(c3cc4c(cc3OC)N(C=O)[C@H]3[C@@](O)(C(=O)OC)[C@H](OC(C)=O)[C@]5(CC)C=CCN6CC[C@]43[C@@H]65)C2)C1 [VINCRISTINE] | 8 | Less-Dili-Concern |
| CCC1=C[C@@H]2CN(C1)Cc1c([nH]c3ccccc13)[C@@](C(=O)OC)(c1cc3c(cc1OC)N(C)[C@H]1[C@@](O)(C(=O)OC)[C@H](OC(C)=O)[C@]4(CC)C=CCN5CC[C@]31[C@@H]54)C2 [VINORELBINE] | 3 | Ambiguous-Dili-Concern |
| C[C@@H](c1ncncc1F)[C@](O)(Cn1cncn1)c1ccc(F)cc1F [VORICONAZOLE] | 8 | Most-Dili-Concern |
| O=C(CCCCCCC(=O)Nc1ccccc1)NO [VORINOSTAT] | 0 | No-Dili-Concern |
| CC(=O)CC(c1ccccc1)c1c(O)c2ccccc2oc1=O (stereo unspecified) [WARFARIN] | 5 | Less-Dili-Concern |
| CCOC(Nc1ccc(C(=O)O)cc1)C(=O)c1ccc(-c2ccccc2)cc1 (stereo unspecified) [XENAZOIC ACID] | 8 | Most-Dili-Concern |
| CCOC(=O)CN[C@@H](C(=O)N1CC[C@H]1C(=O)NCc1ccc(/C(N)=N\O)cc1)C1CCCCC1 [XIMELAGATRAN] | 8 | Most-Dili-Concern |
| COc1cc(C(=O)NS(=O)(=O)c2ccccc2C)ccc1Cc1cn(C)c2ccc(NC(=O)OC3CCCC3)cc12 [ZAFIRLUKAST] | 8 | Most-Dili-Concern |
| CCN(C(C)=O)c1cccc(-c2ccnc3c(C#N)cnn23)c1 [ZALEPLON] | 0 | No-Dili-Concern |
| Cc1cn([C@H]2C[C@H](N=[N+]=[N-])[C@@H](CO)O2)c(=O)[nH]c1=O [ZIDOVUDINE] | 8 | Most-Dili-Concern |
| CC(c1cc2ccccc2s1)N(O)C(N)=O (stereo unspecified) [ZILEUTON] | 5 | Most-Dili-Concern |
| CN(C)C/C=C(/c1ccc(Br)cc1)c1cccnc1 [ZIMELDINE] | 8 | Most-Dili-Concern |

| Molecule | DILI_severity_class [1] | DILI_Concern [2] |
| --- | --- | --- |
| O=C1Cc2cc(CCN3CCN(c4nsc5ccccc45)CC3)c(Cl)cc2N1 [ZIPRASIDONE] | 3 | Less-Dili-Concern |
| O.O=P(O)(O)C(O)(Cn1ccnc1)P(=O)(O)O [ZOLEDRONIC ACID] | 0 | Less-Dili-Concern |
| CN(C)CCc1c[nH]c2ccc(C[C@H]3COC(=O)N3)cc12 [ZOLMITRIPTAN] | 3 | Ambiguous-Dili-Concern |
| Cc1ccc(-c2nc3ccc(C)cn3c2CC(=O)N(C)C)cc1 [ZOLPIDEM] | 7 | Ambiguous-Dili-Concern |
| NS(=O)(=O)Cc1noc2ccccc12 [ZONISAMIDE] | 2 | Less-Dili-Concern |
| BIVALIRUDIN | 0 | No-Dili-Concern |
| BLEOMYCIN | 3 | Ambiguous-Dili-Concern |
| CUPRIC CHLORIDE | 0 | No-Dili-Concern |
| DALTEPARIN SODIUM | 3 | Less-Dili-Concern |
| GALLIUM NITRATE | 3 | Ambiguous-Dili-Concern |
| H-SEEPPISLDLTFHLLREVLEMARAEQLAQQAHSNRKMLEII-OH | 0 | No-Dili-Concern |
| IVERMECTIN | 3 | Less-Dili-Concern |
| LANTHANUM CARBONATE | 0 | No-Dili-Concern |
| NYSTATIN | 0 | No-Dili-Concern |
| POLYMYXIN B SULFATE | 0 | No-Dili-Concern |
| SECRETIN | 0 | No-Dili-Concern |
| SEVELAMER | 0 | No-Dili-Concern |
| SIMETHICONE | 0 | No-Dili-Concern |
| VERTEPORFIN | 3 | Ambiguous-Dili-Concern |
| VITAMIN E | 0 | No-Dili-Concern |
| enfuvirtide | 3 | Ambiguous-Dili-Concern |

Source: ChEMBL document CHEMBL4028802, “DILIrank: the largest reference drug list ranked by the risk for developing drug-induced liver injury in humans” (Drug Discov Today, 2016)
